Measurements published in patent publication US20240228493A1, “LRRK2 INHIBITORS AND USES THEREOF” (NEURON23, ICN., priority 2022, published 2024).

Tests used:
[1] = target: T1, wt human LRRK2, catalytic site (Homo sapiens, UniProt Q5S007); assay: TR-FRET LanthaScreen Tb Kinase Activity Assay, LRRK2 inhibition; type: biochemical; conditions: 2 nM wt human LRRK2, 400 nM peptide, 38 μM ATP
T1 construct: wt human LRRK2, catalytic site, catalytic site (ThermoFisher/USA); purchased ThermoFisher
Description: The compounds disclosed herein were tested for their inhibitory effect on LRRK2 kinase according to the following procedures.
The protocol for basic TR-FRET LanthaScreen Tb Kinase Activity Assay inhibitor studies were as follows. LanthaScreen Kinase Activity Assays (ThermoFisher/USA) to evaluate inhibitors were performed by addition of 100 nL of test compound in corresponding DMSO dilutions/5 μL of kinase/fluorescein-ERM (LRRKtide) peptide mixture, Compound & kinase were pre-incubated for 15 minutes, then 5 μl of ATP into 384 well small volume plates. After incubation for 120 minutes at room temperature, the detection reagents containing Tb-anti-pLRRKtide antibody were added to monitor phosphorylation level of peptide. Then, after 60 min minutes incubation at room temperature plates were read in Envision. Data analysis of emission ratios was according to LanthaScreen Tb Kinase Activity Assay protocol.
Kinase and assay components were adjusted to final concentrations according to the kit protocol. For LRRK2: 2 nM wt human LRRK2, catalytic site, catalytic site (ThermoFisher/USA), 400 nM peptide, 38 μM ATP in 1× Kinase Buffer A. […]
Kinase and assay components were adjusted to final concentrations according to the kit protocol.

Caco-2 cells = assay: Caco-2 bidirectional permeability; type: in vitro ADME; conditions: for Caco-2 ER: Efflux Ratio=Papp(BA)/Papp(AB); for Caco-2 A2B (10^−6 cm/s): apical to basolateral; for Caco-2 A2B (10^−6 cm/s) / Caco-2 B2A (10^−6 cm/s): 2 hours, pH 7.4; for Caco-2 B2A (10^−6 cm/s): basolateral to apical
Description: The compounds disclosed herein were tested in vitro on CaCo2 cell penetration according to the following procedures.
Caco-2 cells purchased from ATCC were seeded onto […] (PET) in 96-well Corning Insert plates at 1×10^5 cells/cm^2. The media were refreshed every 4 to 5 days until the 21st to 28th day for confluent cell monolayer formation.
Experiments were run in duplicate using a HBSS transport buffer containing 10 mM HEPES at pH 7.4. The test article TEST COMPOUND was tested bi-directionally at […] concentrations, the control compound digoxin was tested bi-directionally at 10 μM, and nadolol and metoprolol were tested at 2.0 μM in the A to B direction. Final DMSO concentrations were adjusted to less than 1%. The plates were incubated for 2 hours in a CO2 incubator at 37±1° C. with 5% CO2 at saturated humidity without shaking. Following incubation, samples were mixed with acetonitrile containing internal standard and centrifuged at 3200×g for 10 minutes. Then 200 μL of supernatant was taken from all samples. For TEST COMPOUND and digoxin, the supernatant was diluted with 200 μL of ultra-pure water and for nadolol and metoprolol, the supernatant was diluted with 600 μL of ultra-pure water. All samples were analyzed by LC-MS/MS. Concentrations of TEST COMPOUND and control compounds were determined in starting solutions, donor well solutions, and receiver well solutions using peak area ratios (PAR) of analyte to internal standard. After the transport assay, a lucifer yellow rejection assay was run to determine the Caco-2 cell monolayer integrity.
The apparent permeability (Papp), the % recovery and the efflux ratio were calculated as follows:
Papp=(dCr/dt)×Vr/(A×C0) 1.
Efflux Ratio=Papp(BA)/Papp(AB) 3. • Where: • dCr/dt is the slope of the cumulative concentration in the receiver compartment versus time (mM/s). • Vr and Vd is the volume in the receiver and donor compartments (0.075 mL on the apical side, 0.25 mL on the basolateral side), respectively. • A is the surface area of the cell monolayer (0.0804 cm^2). • C0 is the measured donor concentrations (μM) at the beginning of the experiment. • Cd and Cr are the final measured concentrations in the donor and receiver compartments, respectively.

human hepatocyte = assay: Human hepatocyte stability, predicted hepatic clearance (h-Hept CL predict); type: in vitro ADME; conditions: human hepatocytes, 0.5×10^6 cells/mL, 1 μM, values without asterisk
Description: The compounds disclosed herein were tested in vitro on human hepatocyte for in vitro h-Hept CL predict according to the following procedures. • 1. Compound sock solutions were prepared by dissolving test compound and positive control in dimethyl sulfoxide (DMSO) at a concentration of 10 mM. Stock solutions were then diluted to 100 μM solutions by combining 198 μL of 50% acetonitrile/50% water with 2 μL of the 10 mM stock in separate conical tubes. • 2. Cryopreserved hepatocytes were prepared as follows: Incubation medium (William's E Medium supplemented with GlutaMAX) and hepatocyte thawing medium were placed in a 37° C. water bath and allowed to warm for at least 15 minutes prior to use. Cryopreserved hepatocytes were removed from storage, ensuring that vials remained at cryogenic temperatures until thawed. Cells were thawed by placing the vials in a 37° C. water bath and gently shaking the vials for 2 minutes. After thawing was completed, vials were sprayed with 70% ethanol and transferred to a biosafety cabinet. Hepatocytes were transferred into 50 mL conical tube containing thawing medium using wide-bore pipette tips. Tubes were placed into a centrifuge and spun at 100 g for 10 minutes. Then thawing medium was aspirated and hepatocytes were resuspended in enough incubation medium to yield ˜1.5×10^6 cells/mL. Cells were counted using acridine orange and propidium iodide (AO/PI) staining, and the viable cell density was determined. Cells were diluted with incubation medium to a working cell density of 0.5×10^6 viable cells/mL. • 3. To determine hepatocyte stability, 198 μL of hepatocytes were transferred into each well of a 96-well non-coated plate. Plates were placed in an incubator to allow the hepatocytes to warm for 10 minutes. • 4. The reaction was started by transferring 2 μL of the 100 μM test compound or positive control solution into respective wells of the 96-well non-coated plates. Plates were returned to the incubator until 25 μL aliquots of well contents were sampled at time points of 0, 15, 30, 60, 90 and 120 minutes. The aliquots were then mixed with 6 volumes (150 μL) of acetonitrile containing internal standard, IS (100 nM alprazolam, 200 nM caffeine and 100 nM tolbutamide) to terminate the reaction and vortexed for 5 minutes. After centrifuging the samples for 45 minutes at 3,220 g, aliquots of 100 μL of the supernatant were taken and diluted with 100 μL of ultra-pure water. The mixture was used for LC/MS/MS analysis. All incubations were performed in duplicate.
All calculations were carried out using Microsoft Excel. Peak area ratios (PAR) were determined from extracted ion chromatograms. The in vitro half-life (t1/2) of parent compound was determined by regression analysis of the percent parent disappearance vs. time curve as follows:
Conversion of the in vitro t1/2 (in minutes) into the in vitro intrinsic clearance (in vitro CLint, in μL/min/1×10^6 cells) was done using the following equation (mean of duplicate determinations): […]
The scaled-up intrinsic clearance (CLint, mL/min/kg), predicted hepatic clearance (CLH, mL/min/kg) and hepatic extraction ratio (ER) were calculated using the following equations:
CLint=(0.693/t1/2)*(1/(hepatocyte concentration (0.5*10^6 cells/mL)))*scaling factors (Table (A) Appendix Table 1)
CLHept-predict=(QH*Scaled-up CLint*fub)/(QH+Scaled-up CLint*fub)
ER=CLH/QH • Where: • V=incubation volume (0.2 mL) • N=number of hepatocytes per well (0.1*10^6 cells) • QH=hepatic blood flow (mL/min/kg) (Table (A) Appendix Table 1) • fub=fraction of unbound drug in plasma, assumed to be 1

T1 sequence (Q5S007 1879-2138 limits assumed): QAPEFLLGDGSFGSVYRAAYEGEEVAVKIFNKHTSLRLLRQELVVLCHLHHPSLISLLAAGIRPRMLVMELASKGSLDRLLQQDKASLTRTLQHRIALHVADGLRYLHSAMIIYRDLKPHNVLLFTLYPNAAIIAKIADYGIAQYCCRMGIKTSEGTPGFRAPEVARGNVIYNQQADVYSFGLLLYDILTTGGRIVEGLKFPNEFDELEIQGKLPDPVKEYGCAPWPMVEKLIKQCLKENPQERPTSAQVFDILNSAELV

Row | SMILES | IC50 [1] [nM] | Caco-2 ER (Caco-2 cells) | Caco-2 B2A (10^−6 cm/s) (Caco-2 cells) | Caco-2 A2B (10^−6 cm/s) (Caco-2 cells) | hHep Cl (mL/min/kg) (human hepatocyte)
1 | Cc1n[nH]c2c1N=C(c1c(F)cccc1F)Nc1c-2cc(N2CCC(O)CC2)nc1C [Example 40, 1-(5-(2,6-difluorophenyl)-3,7-dimethyl-1,6-dihydropyrazolo[4,3-d]pyrido[4,3-f][1,3]diazepin-9-yl)piperidin-4-ol] | < 1 | L (L (Likely)”: ER≥2.5) | H (H (High permeability)”: A2B (B2A)>5) | M (M (Moderate permeability)”: 1≤A2B (B2A)≤5) | I (I (Intermediate Cl)”: 6.3≤Hep Cl (mL/min/kg)≤14.7)
2 | Cc1nc(N2CCC[C@@H](C#N)C2)cc2c1NC(c1c(F)cccc1F)=Nc1cn[nH]c1-2 [Example 47, (R)-1-(5-(2,6-difluorophenyl)-7-methyl-1,6-dihydropyrazolo[4,3-d]pyrido[4,3-f][1,3]diazepin-9-y1)piperidine-3-carbonitrile] | < 1 | L (L (Likely)”: ER≥2.5) | H (H (High permeability)”: A2B (B2A)>5) | M (M (Moderate permeability)”: 1≤A2B (B2A)≤5) | H (H (High Cl)”: Hep Cl (mL/min/kg)>14.7)
3 | N#C[C@@H]1CCCN(c2cc3c(cn2)NC(c2c(F)cccc2F)=Nc2c(Cl)n[nH]c2-3)C1 [Example 52, (R)-1-(3-chloro-5-(2,6-difluorophenyl)-1,6-dihydropyrazolo[4,3-d]pyrido[4,3-f][1,3]diazepin-9-y1)piperidine-3-carbonitrile] | < 1 | L (L (Likely)”: ER≥2.5) | H (H (High permeability)”: A2B (B2A)>5) | M (M (Moderate permeability)”: 1≤A2B (B2A)≤5) | I (I (Intermediate Cl)”: 6.3≤Hep Cl (mL/min/kg)≤14.7)
4 | Fc1cccc(F)c1C1=Nc2c(Cl)n[nH]c2-c2cc(N3CC4CCC(C3)O4)ncc2N1 [Example 53, 3-(3-chloro-5-(2,6-difluorophenyl)-1,6-dihydropyrazolo[4,3-d]pyrido[4,3-f][1,3]diazepin-9-yl)-8-oxa-3-azabicyclo[3.2.1]octane] | < 1 | L (L (Likely)”: ER≥2.5) | H (H (High permeability)”: A2B (B2A)>5) | M (M (Moderate permeability)”: 1≤A2B (B2A)≤5) | I (I (Intermediate Cl)”: 6.3≤Hep Cl (mL/min/kg)≤14.7)

The next lines start with results.

Row | IC50 [1] [nM] | Caco-2 ER (Caco-2 cells) | Caco-2 B2A (10^−6 cm/s) (Caco-2 cells) | SMILES | Caco-2 A2B (10^−6 cm/s) (Caco-2 cells) | hHep Cl (mL/min/kg) (human hepatocyte)
5 | < 1 | L (L (Likely)”: ER≥2.5) | H (H (High permeability)”: A2B (B2A)>5) | COC1(C#Cc2cc3c(cn2)NC(c2c(F)cccc2F)=Nc2c(C)n[nH]c2-3)CCOCC1 [Example 31, 8-(2,6-difluorophenyl)-13-[2-(4-methoxytetrahydropyran-4-y1)ethynyl]-5-methyl-3,4,7,9,12-pentazatricyclo[8.4.0.02,6]tetradeca-1(10),2(6),4,7,11,13-hexaene] | M (M (Moderate permeability)”: 1≤A2B (B2A)≤5) | I (I (Intermediate Cl)”: 6.3≤Hep Cl (mL/min/kg)≤14.7)
6 | < 1 | L (L (Likely)”: ER≥2.5) | H (H (High permeability)”: A2B (B2A)>5) | Cc1n[nH]c2c1N=C(c1c(F)cccc1F)Nc1c-2cc(N2CCN(S(C)(=O)=O)CC2)nc1C [Example 44, 5-(2,6-difluorophenyl)-3,7-dimethyl-9-(4-(methylsulfonyl)piperazin-1-yl)-1,6-dihydropyrazolo[4,3-d]pyrido[4,3-f][1,3]diazepine] | L (L (Low permeability)”: A2B (B2A)<1) | L (L (Low Cl)”: Hep Cl (mL/min/kg)<6.3)
7 | 1 to 100 | L (L (Likely)”: ER≥2.5) | H (H (High permeability)”: A2B (B2A)>5) | Cc1n[nH]c2c1N=C(c1c(F)cccc1F)Nc1cnc(N3CC[C@@H](C#N)C3)cc1-2 [Example 49, (R)-1-(5-(2,6-difluorophenyl)-3-methyl-1,6-dihydropyrazolo[4,3-d]pyrido[4,3-f][1,3]diazepin-9-y1)pyrrolidine-3-carbonitrile] | M (M (Moderate permeability)”: 1≤A2B (B2A)≤5) | I (I (Intermediate Cl)”: 6.3≤Hep Cl (mL/min/kg)≤14.7)
8 | 1 to 100 | L (L (Likely)”: ER≥2.5) | H (H (High permeability)”: A2B (B2A)>5) | Cc1n[nH]c2c1N=C(c1c(F)ccc(CO)c1F)Nc1cnc(N3CCOCC3)cc1-2 [Example 50, (2,4-difluoro-3-(3-methyl-9-morpholino-1,6-dihydropyrazolo[4,3-d]pyrido[4,3-f][1,3]diazepin-5-yl)phenyl)methanol] | L (L (Low permeability)”: A2B (B2A)<1) | L (L (Low Cl)”: Hep Cl (mL/min/kg)<6.3)
9 | 1 to 100 | L (L (Likely)”: ER≥2.5) | H (H (High permeability)”: A2B (B2A)>5) | Cc1cc(F)c(C2=Nc3cn[nH]c3-c3cc(N4CCOCC4)ncc3N2)c(F)c1 [Example 51, 4-(5-(2,6-difluoro-4-methylphenyl)-1,6-dihydropyrazolo[4,3-d]pyrido[4,3-f][1,3]diazepin-9-yl)morpholine] | H (H (High permeability)”: A2B (B2A)>5) | I (I (Intermediate Cl)”: 6.3≤Hep Cl (mL/min/kg)≤14.7)
